Results published in PubChem BioAssay AID464 (The Scripps Research Institute Molecular Screening Center, 2006).
Activity calls are given as the source filed them.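 The calls were made as follows: active = Compounds that kill half the cells at a concentration of 5 micromolar or below, from the fitted or estimated CC50; inactive = CC50 above 5 micromolar.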

Test system: Jurkat E6.1 viability, ATP luminescence, 48 h
Assay: viability loss in Jurkat T cells – cell-based, ATP luminescence, 48 h, 60K MLSMR, cytotoxicity control, dose response (AID 464)

## COc1ccc(CC(=O)Nc2nc(C)cs2)cc1OC
  CC50: 23.4 µM (inactive)

## Cc1cc(NC(=O)COC(=O)c2ccc(S(=O)(=O)N3CCCc4ccccc43)cc2)no1
  CC50: 2.16 µM

## CCc1nnc(NC(=O)c2ccc(S(=O)(=O)N(CC(C)C)CC(C)C)cc2)o1
  CC50: 29.8 µM (inactive)

## CC(=O)c1c(N2CCN(Cc3ccccc3)CC2)[nH]c(-c2ccccc2)nc1=S
  CC50: > 40 µM (inactive)

## CCCCOC(=O)c1[nH]c2c(c1C)C(=O)CC(c1cc(OC)c(OC)c(OC)c1)C2 (stereo not drawn)
  CC50: 18.7 µM (inactive)

## COc1ccc(NS(=O)(=O)c2cc(OC)ccc2NC(=O)c2cc(C)oc2C)cc1
  CC50: 2.25 µM

## COc1ccccc1-c1nnc2sc(-c3ccc(N(C)C)cc3)nn12
  CC50: 0.0343 µM

## CC1=C(C(=O)OCc2ccc3c(c2)OCO3)C(c2ccc(Cl)cc2)NC(=O)N1 (stereo not drawn)
  CC50: 12.6 µM (inactive)

## O=C(CSc1nc(-c2ccco2)cc(C(F)(F)F)n1)Nc1ccc2c(c1)OCO2
  CC50: 5.19 µM (inactive)

## CCSc1nnc(NC(=O)c2ccccn2)s1
  CC50: 8.3 µM (inactive)

## CCCCn1c(CN(C)Cc2ccccc2)nc2c1c(=O)n(C)c(=O)n2C
  CC50: 14.8 µM (inactive)

## CNC(=O)N(C1=NCC(C)(C)S1)c1ccc(F)c(Cl)c1
  CC50: 10.4 µM (inactive)

## Oc1c(CN2CCOCC2)cc(COCc2ccccc2)c2cccnc12
  CC50: 2.65 µM

## CCN(CC)S(=O)(=O)c1cccc(C(=O)Nc2nc3cc4c(cc3s2)OCCO4)c1
  CC50: 12.8 µM (inactive)

## COc1cccc(N2C(N)=NC(N)=NC2(C)C)c1
  CC50: 2.58 µM

## CNc1nc(C)c(C(=O)OCc2ccccc2)s1
  CC50: 9.81 µM (inactive)

## CCOc1ccccc1NC(=O)CN(c1ccc(OC)cc1)S(=O)(=O)c1c(C)noc1C
  CC50: 1.37 µM

## CCOC(=O)c1oc2ccc(S(=O)(=O)Nc3ccc4c(c3)n(C)c(=O)n4C)cc2c1C
  CC50: 11.3 µM (inactive)

## O=c1cc(-c2ccccc2)[nH]c2ccccc12
  CC50: 0.373 µM

## CCOc1cc(N2CCOCC2)c(OCC)cc1NS(=O)(=O)c1ccc(Cl)s1
  CC50: 1.84 µM

## CCOC(=O)C1(N(CC)CC)Sc2cc(C)ccc2NC1=O (stereo not drawn)
  CC50: 8.81 µM (inactive)

## COc1cc(C2C(C#N)=C(C)NC3=C2C(=O)c2ccccc23)cc(OC)c1OC (stereo not drawn)
  CC50: 3.48 µM

## CCOc1ccc(Cl)cc1S(=O)(=O)n1cnc2ccccc21
  CC50: 14.8 µM (inactive)

## Cn1nc(CC(=O)Nc2ccc3c(c2)OCCO3)c2ccccc2c1=O
  CC50: 0.96 µM

## COC(=O)/C=C/S(=O)(=O)c1ccc(NC(C)=O)cc1
  CC50: 2.31 µM

## COC(=O)c1[nH]c2c(c1C)C(=O)CC(c1ccccc1)C2 (stereo not drawn)
  CC50: 0.391 µM

## O=C(Nc1ccc2oc(Cc3ccc(Cl)cc3)nc2c1)c1cccnc1
  CC50: 27.8 µM (inactive)

## COC(=O)c1ccc(NC(=O)c2ccc(N(C)S(C)(=O)=O)cc2)cc1
  CC50: 11.9 µM (inactive)

## CCCOC(=O)c1[nH]c2c(c1C)C(=O)CC(c1cc(OC)c(OC)c(OC)c1)C2 (stereo not drawn)
  CC50: 23.8 µM (inactive)

## Cc1cccc(N2CCN(C(=O)c3ccc(CS(=O)(=O)c4ccccc4C)o3)CC2C)c1 (stereo not drawn)
  CC50: 0.785 µM

## CCCCCCOc1ccc(/C(N)=N/O)cc1
  CC50: 6.87 µM (inactive)

## O=c1c2ccccc2nnn1CSc1nnc(-c2cccs2)n1Cc1ccccc1
  CC50: > 40 µM (inactive)

## N=c1c2c(-c3ccccc3)c(-c3ccccc3)n(Cc3ccco3)c2ncn1Cc1ccco1
  CC50: 23.7 µM (inactive)

## CC(=O)c1sc(NC(=O)C2(F)C(F)(F)C(F)(F)C(F)(F)C(F)(F)C2(F)F)nc1C
  CC50: > 13 µM (inactive)

## CCCn1c(NC(=O)C2CCN(S(=O)(=O)c3cccs3)CC2)nc2ccccc21
  CC50: > 40 µM (inactive)

## Cn1nc(CC(=O)Nc2ccc(N3CCN(C(=O)OC(C)(C)C)CC3)cc2)c2ccccc2c1=O
  CC50: > 13 µM (inactive)

## Cc1noc(C)c1CSc1nc2[nH]ncc2c(=O)n1-c1ccccc1
  CC50: 0.188 µM

## COc1ccccc1-n1nnnc1S(=O)(=O)Cc1ccc(Cl)cc1
  CC50: 3.3 µM

## Nc1c(C(=O)Nc2ccc3c(c2)OCCO3)nnn1CCc1ccccc1
  CC50: 4.23 µM

## COc1cccc(C2=CC(c3cc(OC)ccc3OC)n3nnnc3N2)c1 (stereo not drawn)
  CC50: 11.7 µM (inactive)

## COc1ccccc1N1CCN(c2nc(C)nc3c2oc2ccccc23)CC1
  CC50: 1.04 µM

## CC1(C)CC(=O)C2=C(C1)OC1=C(C(=O)CC(C)(C)C1)C2c1ccc(O)cc1O
  CC50: 2.39 µM

## CC(C)c1cc(C(=O)Nc2sc3c(c2C#N)CCC3)no1
  CC50: 15.6 µM (inactive)

## CCOc1cc(N2CCOCC2)c(OCC)cc1NC(=O)COc1cccc2cccnc12
  CC50: 9.13 µM (inactive)

## Cc1ccc(Nc2cc(C)nn2-c2nc(C)cc(=O)[nH]2)cc1
  CC50: 1.31 µM

## Oc1ccc(-c2nc(-c3ccc(O)c(O)c3)cs2)cc1
  CC50: 0.167 µM

## O=C(Nc1cc(N2CCOCC2)ncn1)NC1(C(F)(F)F)Oc2ccc(Cl)cc2O1 (stereo not drawn)
  CC50: 4.81 µM

## CCCc1cc(C(=O)Nc2cc(Br)ccc2O)no1
  CC50: > 40 µM (inactive)

## Cc1cc(NC(=O)CSc2nnc3c(C)cc4c(C)ccc(C)c4n23)no1
  CC50: 3.83 µM

## CCOC(=O)c1[nH]c(C)c(C(=O)Nc2cccc(Cl)c2C)c1C
  CC50: 3.8 µM

## Cc1nn(-c2ccccc2)c(C)c1C(=O)OCC(=O)c1c(N)n(CC(C)C)c(=O)n(C)c1=O
  CC50: 9.53 µM (inactive)

## Cc1cc2c(N=O)c(NO)ccc2[nH]1
  CC50: 1.97 µM

## CC(C)C1N=C2c3ccccc3N=C(SCC(=O)c3ccc(O)c(O)c3)N2C1=O (stereo not drawn)
  CC50: 10.2 µM (inactive)

## c1ccc(-c2cccc(-c3ccccn3)n2)nc1
  CC50: 1.08 µM

## COc1ccccc1N1CCN(C(=O)c2c(-c3ccccc3)noc2C)CC1
  CC50: 2.92 µM

## Cc1ccc(S(=O)(=O)C2(S(=O)(=O)c3ccc(C)cc3)CCCC2)cc1
  CC50: 3.23 µM

## CCCCN(C)S(=O)(=O)c1ccc(C(=O)Nc2nnc(-c3cccs3)o2)cc1
  CC50: 14.1 µM (inactive)

## CCCCNc1cc(C)nc(NCc2ccccc2)n1
  CC50: 10.5 µM (inactive)

## Cn1cc(/C=N/n2cnc3scc(-c4ccccc4)c3c2=O)c2ccccc21
  CC50: 1.1 µM

## Cc1ccsc1C(=O)Nc1nnc(-c2ccco2)o1
  CC50: 24.2 µM (inactive)

## Cc1sc(NC(=O)c2ccco2)c(C(c2cccnc2)N2CCN(c3ccc(F)cc3)CC2)c1C (stereo not drawn)
  CC50: > 40 µM (inactive)

## COc1cc(Cn2c(-c3nonc3N)nc3ccccc32)ccc1C
  CC50: 1.55 µM

## N#C/C(=C/c1ccc(N2CCCCCC2)o1)c1ccc(F)cc1
  CC50: > 13 µM (inactive)

## O=C(CC(=O)c1ccccc1O)c1cccc(F)c1
  CC50: > 40 µM (inactive)

## O=C(NC1CC1)c1cc2c(s1)-c1ccccc1OC2
  CC50: 15.6 µM (inactive)

## CCOc1cc(C#N)c(NC(=O)c2ccco2)cc1OCC
  CC50: 4.31 µM

## COc1ccc(NC(=O)c2cc(-c3ccccc3OC)on2)cc1
  CC50: 1.85 µM

## Cc1ccc2c(c1)nnn2C1CCN(S(=O)(=O)c2ccc(C(=O)N3C(C)CCCC3C)cc2)CC1 (stereo not drawn)
  CC50: 9.39 µM (inactive)

## CCOC(=O)c1c(C)c(C(=O)Nc2ccc(N(C)C)cc2)c(C)n1CC
  CC50: 5.84 µM (inactive)

## CCOc1ccc(N(CC)S(=O)(=O)c2ccc3c(c2)oc(=O)n3C)cc1
  CC50: 2.94 µM

## CCC(=O)Nc1nc2ccccc2n1Cc1ccc(C)cc1
  CC50: > 40 µM (inactive)

## CC1CCCCN1S(=O)(=O)c1ccc(C(=O)Nc2nnc(-c3cccs3)o2)cc1 (stereo not drawn)
  CC50: 13.7 µM (inactive)

## CCCCNc1ncnc2c1cnn2-c1ccccc1
  CC50: 2.39 µM

## N#Cc1nc(N2CCCCC2)nc(N2CCOCC2)n1
  CC50: 12.9 µM (inactive)

## Oc1c(CN2CCN(c3ccccn3)CC2)cc(Cl)c2cccnc12
  CC50: 2.85 µM

## O=S1(=O)Nc2c(ccc3cccnc23)-c2ccccc21
  CC50: 4.74 µM

## Cc1cc(NC(=O)CSc2nc(-c3ccco3)cc(C(F)(F)F)n2)n(-c2ccccc2)n1
  CC50: 4.28 µM

## O=C1N/C(=C\c2ccccc2)c2ccccc21
  CC50: > 4.4 µM (inactive)

## Cc1onc(-c2ccccc2)c1C(=O)Nc1cc(C(F)(F)F)ccc1N1CCOCC1
  CC50: 2.15 µM

## CC1=C(C(=O)OCc2ccc3c(c2)OCO3)C(c2ccc(F)cc2)NC(=O)N1 (stereo not drawn)
  CC50: 3.57 µM

## CC(=O)Nc1ccc(S(=O)(=O)N2CCCc3ccccc32)cc1
  CC50: 3.07 µM

## Cc1cc(C(=O)OCC(=O)NCc2ccco2)c(C)n1-c1ccc(F)cc1
  CC50: 2.34 µM

## COc1cc(NC(=O)c2ccc3c(c2)OCO3)ccc1NC(=O)C(C)C
  CC50: 2.19 µM

## Oc1ccc(COCc2ccccc2)c2cccnc12
  CC50: 3.06 µM

## O=C(CSC1=NCCS1)Nc1ccnc2ccccc12
  CC50: > 40 µM (inactive)

## CCOC(=O)c1ccc(NC(=O)c2ccc(CN3CCOCC3)cc2)cc1
  CC50: 5.13 µM (inactive)

## CC1=C(C)CS(=O)N(S(=O)(=O)c2ccc(Cl)cc2)C1 (stereo not drawn)
  CC50: 2.96 µM

## Cc1cc(C)nc(NC(=O)Nc2ccccc2C(F)(F)F)n1
  CC50: > 4.4 µM (inactive)

## COc1cc(C2Nc3ccc4ncccc4c3C3=C2C(=O)CCC3)ccc1O (stereo not drawn)
  CC50: 2.5 µM

## Cc1nn(-c2ccccc2)c(C)c1C(=O)Nc1nnc(-c2ccco2)o1
  CC50: > 40 µM (inactive)

## CCCn1c(NC(=O)c2cccc(S(=O)(=O)N3CCCC3)c2)nc2ccccc21
  CC50: > 40 µM (inactive)

## COc1ccccc1-n1cnc2cc(NCc3ccco3)ccc21
  CC50: 0.313 µM

## Cc1ccc(O)c(NC(=O)CCC2CCCCC2)c1
  CC50: 6 µM (inactive)

## COc1cc(C(=O)N2CCN(c3ncnc4sc(C)c(C)c34)CC2)cc(OC)c1OC
  CC50: 2.36 µM

## CCOc1ccc2nc(-c3ccccc3)[nH]c2c1
  CC50: 3.01 µM

## CCN(CC)S(=O)(=O)c1cccc(C(=O)Nc2ccccc2)c1
  CC50: 18.3 µM (inactive)

## CCOC(=O)c1[nH]c(C)c(C(=O)Nc2cc(Cl)ccc2C)c1C
  CC50: 0.248 µM

## Cc1conc1NC(c1cccs1)c1ccc2cccnc2c1O (stereo not drawn)
  CC50: > 13 µM (inactive)

## COc1ccc(C2=NOC(C(=O)NCc3ccc(F)cc3)C2)cc1OC (stereo not drawn)
  CC50: 0.318 µM

## CN(C)CC(C(=O)c1ccccc1)c1ccccc1 (stereo not drawn)
  CC50: 3.91 µM

## CCOc1cc(C(=O)Nc2cnccn2)cc(OCC)c1OCC
  CC50: 6.16 µM (inactive)

## CCCOc1ccc2ccccc2c1/C=N/n1c(C)nnc1-n1nc(C)cc1C
  CC50: 1.96 µM

## O=C(Nc1ccccc1C(F)(F)F)c1cc(-c2ccccc2O)on1
  CC50: > 40 µM (inactive)

## CC1=CC(C)(C)Nc2ccc(OC(=O)c3ccco3)cc21
  CC50: 4.78 µM

## COc1ccc(C2CC(c3c(O)cc(C)oc3=O)=NCCS2)c(OC)c1 (stereo not drawn)
  CC50: 0.318 µM

## Cc1nnc(Sc2nc(Sc3nnc(C)s3)nc(N3CCN(C)CC3)n2)s1
  CC50: 1.34 µM

## Cc1cc(NC(=O)CSc2nc(-c3ccco3)cc(C(F)(F)F)n2)no1
  CC50: 0.233 µM

## CCCCOc1ccccc1C1CC(=O)NC2=C1C(=O)CCC2 (stereo not drawn)
  CC50: 0.872 µM
